Results published in patent US11267810B2, “Aminopyrimidine compound and composition comprising same and use thereof” (Shenzhen TargetRx, Inc., priority 2017, dated 2022).
Read-outs that look alike come from different tables or passages of the source.

Experiments:
[1] = test system: lung cancer cells HCC827 (Del19); experiment: MTS cell viability assay, HCC827; assay type: cell-based; details: Homo sapiens, 72 hours
Procedure: (§1) Cell line: Skin cancer cell line A431 (purchased from the American Type Culture Collection (ATCC)); lung cancer cells NCI-H1975 (purchased from the American Type Culture Collection (ATCC)) and HCC827 (purchased from the American Type Culture Collection (ATCC)). All of the cells were cultured in RPMI1640 medium containing 10% fetal bovine serum, 100 U/ml penicillin, and 100 μg/ml streptomycin.
(§2) Reagents and materials: RPMI-1640 (GIBCO, Cat. No. A10491-01); fetal bovine serum (GIBCO, Cat. No. 10099141); 0.25% trypsin-EDTA (GIBCO, Cat. No. 25200); penicillin-streptomycin, liquid (GIBCO, Cat. No. 15140-122); DMSO (Sigma, Cat. No. D2650); MTS Test Kit (Promega, Cat. No. G3581), 96-well plate (Corning, Cat. No. 3365).
(§3) Compound preparation: the test compound was dissolved in DMSO to make a 20 mM stock solution and stored at −20° C. It was diluted in DMSO with a 3-fold series gradient dilution for 10 times. The dilutions were diluted 4 fold with cell culture medium.
(§4) MTS cell viability assay: cells in logarithmic growth phase was digested with 0.25% trypsin-EDTA, and 150 μl of the cells was inoculated in 96-well plates at an optimized density. After 24 hours, the compound diluted 4 fold by adding the medium, 50 μl/well (generally 10 Concentrations were selected: 100, 33.3, 11.1, 3.70, 1.23, 0.412, 0.137, 0.0457, 0.0152, 0.00508 μM). A well added with the same volume of 0.5% DMSO was used as a control. After the cells were cultured for further 72 hours, the cell viability was detected with MTS.
(§5) Specific procedure: cells were adhered, the medium was discarded, and a mixture containing 20 μL MTS and 100 μL medium was added to each well. The OD490 was detected after being placed in the incubator for 1-4 hours, and the OD650 value was used as a reference. A dose-effect curve was prepared using GraphPad Prism software and IC50 was calculated.

[2] = test system: lung cancer cells NCI-H1975 (L858R/T790M); experiment: MTS cell viability assay, NCI-H1975; assay type: cell-based; details: Homo sapiens, 72 hours
Procedure: as §1, §2, §3, §4, §5

WT EGFR = WT EGFR (Homo sapiens (Human), UniProt P00533); experiment: WT EGFR kinase assay (HTRF Kinase TK kit); assay type: biochemical
Chain of WT EGFR (P00533 25-1210): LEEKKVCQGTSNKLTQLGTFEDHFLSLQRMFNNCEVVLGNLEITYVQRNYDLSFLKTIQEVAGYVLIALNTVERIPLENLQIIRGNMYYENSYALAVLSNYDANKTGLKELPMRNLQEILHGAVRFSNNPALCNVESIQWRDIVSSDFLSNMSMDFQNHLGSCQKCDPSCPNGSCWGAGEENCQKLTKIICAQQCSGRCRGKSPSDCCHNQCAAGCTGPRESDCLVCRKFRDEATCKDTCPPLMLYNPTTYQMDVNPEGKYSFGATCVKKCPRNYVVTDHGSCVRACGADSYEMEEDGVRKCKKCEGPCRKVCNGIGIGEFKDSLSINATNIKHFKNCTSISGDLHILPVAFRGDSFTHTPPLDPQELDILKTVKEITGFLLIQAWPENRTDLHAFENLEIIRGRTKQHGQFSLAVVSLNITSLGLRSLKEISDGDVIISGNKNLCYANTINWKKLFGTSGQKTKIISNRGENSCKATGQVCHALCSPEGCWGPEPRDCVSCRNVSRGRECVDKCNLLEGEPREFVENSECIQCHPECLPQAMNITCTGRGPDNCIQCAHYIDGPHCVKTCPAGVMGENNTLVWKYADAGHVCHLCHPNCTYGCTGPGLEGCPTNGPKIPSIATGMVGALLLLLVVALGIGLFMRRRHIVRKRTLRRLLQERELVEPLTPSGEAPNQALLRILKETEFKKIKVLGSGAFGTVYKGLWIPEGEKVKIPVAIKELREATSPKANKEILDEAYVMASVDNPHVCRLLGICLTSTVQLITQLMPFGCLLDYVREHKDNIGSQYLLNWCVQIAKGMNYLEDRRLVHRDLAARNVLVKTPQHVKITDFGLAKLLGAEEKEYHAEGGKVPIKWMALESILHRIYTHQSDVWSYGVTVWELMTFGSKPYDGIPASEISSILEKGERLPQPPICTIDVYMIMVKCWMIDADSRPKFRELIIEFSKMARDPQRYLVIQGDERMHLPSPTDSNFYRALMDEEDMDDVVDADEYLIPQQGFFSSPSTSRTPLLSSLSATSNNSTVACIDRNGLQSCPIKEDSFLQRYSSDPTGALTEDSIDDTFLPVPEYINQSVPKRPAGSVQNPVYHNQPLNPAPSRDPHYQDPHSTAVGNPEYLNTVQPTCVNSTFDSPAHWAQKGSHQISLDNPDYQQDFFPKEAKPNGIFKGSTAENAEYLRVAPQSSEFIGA
Excerpt: (§6) WT EGFR (Cana, Cat. No. 08-115), EGFR [L858R] (Carna, Cat. No. 08-502), EGFR [L858R/T790M] (Carna, Cat. No. 08-510), ATP (Sigma, Cat. No. A7699-1G), DMSO (Sigma, Cat. No. D2650), 96-well plate (Corning, Cat. No. 3365), 384-well plate (Greiner, Cat. No. 784076), HTRF Kinase TK Kit (Cisbio, Cat. No. 62TK0PEJ), Erlotinib (Selleckchem, Cat. No. S7787), EGFR [d746-750] (Life Technologies, Cat. No. PV6178), 5× Kinase Buffer A (Life Technologies, Cat. No. PV3186), Kinase Tracer 199 (Life Technologies, Cat. No. PV5830), LanthaScreen® Eu-anti-GST antibody (Life Technologies, Cat. No. PV5594).
(§7) Compound preparation: the test compound was dissolved in DMSO to make a 20 mM stock solution. Then, it was diluted in DMSO with a 3-fold series gradient dilution for 10 times. The dilutions were diluted 10 fold with buffer when dosing.
(§8) WT EGFR and EGFR [L858R/T790M] kinase assay: WT EGFR or EGFR [L858R/T790M] kinase was mixed with different concentrations of pre-diluted compounds for 10 minutes in 5× Kinase Buffer A in duplicate. The corresponding substrate and ATP were added and reacted at room temperature for 20 minutes (in which a negative and a positive control were set: the negative control is blank and the positive control is AZD9291). After the reaction, the detection reagent (the reagent in the HTRF Kinase TK kit) was added, and after incubation at room temperature for 30 minutes, the enzyme activity in the presence of the compounds of the present disclosure at each concentration was measured by an Evnvision microplate reader, and the inhibition of the enzyme by the compound at each concentrations were calculated. The inhibitions of the enzyme activity by the compounds at different concentrations were then fitted using Graphpad 5.0 software according to the four-parameter equation, and the IC50 values were calculated.

[3] = test system: Skin cancer cell line A431 (WT); experiment: MTS cell viability assay, A431; assay type: cell-based; details: Homo sapiens, A-431, 72 hours
Procedure: as §1, §2, §3, §4, §5

EGFR [L858R/T790M] = EGFR [L858R/T790M] (Homo sapiens (Human), UniProt P00533, L858R/T790M); experiment: EGFR [L858R/T790M] kinase assay (HTRF Kinase TK kit); assay type: biochemical
Chain of EGFR [L858R/T790M] (P00533 25-1210 T790M/L858R): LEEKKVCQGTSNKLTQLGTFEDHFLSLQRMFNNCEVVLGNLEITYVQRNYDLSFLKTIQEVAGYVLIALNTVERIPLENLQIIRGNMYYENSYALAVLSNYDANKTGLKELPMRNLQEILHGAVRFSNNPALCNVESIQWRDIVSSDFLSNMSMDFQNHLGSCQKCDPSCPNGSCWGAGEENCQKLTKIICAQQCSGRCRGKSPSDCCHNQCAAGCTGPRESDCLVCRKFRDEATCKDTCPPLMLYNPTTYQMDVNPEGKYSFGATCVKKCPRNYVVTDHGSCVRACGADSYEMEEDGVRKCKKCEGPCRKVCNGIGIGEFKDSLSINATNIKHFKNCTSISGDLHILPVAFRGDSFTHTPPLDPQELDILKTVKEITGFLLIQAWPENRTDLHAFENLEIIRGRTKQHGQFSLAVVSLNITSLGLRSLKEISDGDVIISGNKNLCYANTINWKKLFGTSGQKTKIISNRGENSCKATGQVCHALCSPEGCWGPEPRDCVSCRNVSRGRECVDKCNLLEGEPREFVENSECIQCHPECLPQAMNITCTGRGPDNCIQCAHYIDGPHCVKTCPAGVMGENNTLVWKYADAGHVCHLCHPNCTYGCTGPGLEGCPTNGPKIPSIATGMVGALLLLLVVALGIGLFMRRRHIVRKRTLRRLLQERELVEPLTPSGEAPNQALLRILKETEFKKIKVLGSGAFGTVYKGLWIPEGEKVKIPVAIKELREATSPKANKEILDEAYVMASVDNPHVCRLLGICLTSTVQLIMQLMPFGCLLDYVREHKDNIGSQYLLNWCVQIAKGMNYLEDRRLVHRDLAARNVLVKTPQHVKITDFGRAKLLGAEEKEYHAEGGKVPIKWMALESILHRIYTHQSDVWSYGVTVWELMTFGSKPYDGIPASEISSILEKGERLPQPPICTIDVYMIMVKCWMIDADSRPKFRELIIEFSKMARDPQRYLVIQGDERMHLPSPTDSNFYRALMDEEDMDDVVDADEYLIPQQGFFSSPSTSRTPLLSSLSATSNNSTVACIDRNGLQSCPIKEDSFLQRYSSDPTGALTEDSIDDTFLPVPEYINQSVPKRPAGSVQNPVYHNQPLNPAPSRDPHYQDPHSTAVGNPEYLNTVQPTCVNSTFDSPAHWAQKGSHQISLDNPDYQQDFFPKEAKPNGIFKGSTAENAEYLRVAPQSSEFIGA
Excerpt: as §6, §7, §8

[4] = Pharmacokinetic experiment in rats; assay type: in vivo, Sprague-Dawley rats; details: rat; for AUC(0-t) / Cmax / Tmax / half-life / AUC(0-inf) / clearance / MRT inf / Vd / bioavailability: male, Sprague-Dawley, plasma; for AUC(0-inf): read-out: AUCINF—pred; for clearance: read-out: Cl—pred (converted); for MRT inf: read-out: MRTINF—pred; for Vd: read-out: Vz—pred; for bioavailability: PO 10 mg/kg vs IV 0.5 mg/kg
Procedure: Six male Sprague-Dawley rats, 7 to 8 weeks old, weighing approximately 210 g, were divided into 2 groups with 3 rats in each group. The pharmacokinetic differences were compared after administering to the rats a single dose of compounds through vein (in vein 0.5 mg/kg) or mouth (orally 10 mg/kg).
The rats were fed with standard feed, given water, and fasted 16 hours before the experiment. The drugs were dissolved with PEG400 and dimethyl sulfoxide. Orbital blood was collected at the time point of 0.083, 0.25, 0.5, 1, 2, 4, 6, 8, 12 and 24 hours after administration.
The rats were anesthetized for a short time after inhaling ether, and 300 μL of blood sample was collected from the orbit and put into a test tube, which contains 30 μL of 1% heparin salt solution. The test tubes were dried overnight at 60° C. prior to use. After the blood sample collection at the last time point, the rats were killed after the ether anesthesia.
Immediately after the blood sample collection, the test tubes were gently inverted at least 5 times to ensure the fully mixing and placed them on ice. The blood samples were centrifuged at 4° C., 5000 rpm for 5 minutes to separate the plasma from the red blood cells. 100 μL of plasma was pipetted into a clean plastic centrifuge tube, with the name of the compound and time point on it. The plasma was stored at −80° C. before analysis, and LC-MS/MS was used to determine the concentration of the compounds disclosed herein in plasma. Pharmacokinetic parameters were calculated based on the plasma concentrations of each animal at different time points.

EGFR mutant kinase = details: cited from earlier work

| IC50 [1] [nM] | IC50 [2] [nM] | IC50 (WT EGFR) [nM] | IC50 [3] [nM] | IC50 (EGFR [L858R/T790M]) [nM] | AUC(0-t) ([4]; IV 0.5 mg/kg single dose) [ng·h/mL] | Cmax ([4]; IV 0.5 mg/kg single dose) [ng/mL] | Tmax ([4]; IV 0.5 mg/kg single dose) [h] | half-life ([4]; IV 0.5 mg/kg single dose) [h] | AUC(0-inf) ([4]; IV 0.5 mg/kg single dose) [ng·h/mL] | clearance ([4]; IV 0.5 mg/kg single dose) [mL/min/kg] | MRT inf ([4]; IV 0.5 mg/kg single dose) [h] | Vd ([4]; IV 0.5 mg/kg single dose) [L/kg] | AUC(0-t) ([4]; PO 10 mg/kg single dose) [ng·h/mL] | Cmax ([4]; PO 10 mg/kg single dose) [ng/mL] | Tmax ([4]; PO 10 mg/kg single dose) [h] | half-life ([4]; PO 10 mg/kg single dose) [h] | AUC(0-inf) ([4]; PO 10 mg/kg single dose) [ng·h/mL] | MRT inf ([4]; PO 10 mg/kg single dose) [h] | bioavailability [4] [%] | Compound | further results |
| --- | --- | --- | --- | --- | --- | --- | --- | --- | --- | --- | --- | --- | --- | --- | --- | --- | --- | --- | --- | --- | --- |
| 2.5 | 5.02 | < 2 | 200 to 450 | < 0.3 | – | – | – | – | – | – | – | – | – | – | – | – | – | – | – | [2H]C([2H])([2H])N(Cc1cn(-c2ccnc(Nc3cc(NC(=O)C=C)c(N4CCOCC4)cc3OC)n2)nc1-c1ccccc1)C([2H])([2H])[2H] [Compound T-4, N-(5-((4-(4-((bis(methyl-d3)amino)methyl)-3-phenyl-1H-pyrazol-1-yl)pyrimidin-2-yl)amino)-4-methoxy-2-morpholinophenyl)acrylamide] | – |
| 2 | 4.23 | < 2 | 200 to 450 | < 0.3 | – | – | – | – | – | – | – | – | – | – | – | – | – | – | – | [2H]c1c([2H])c([2H])c(-c2nn(-c3ccnc(Nc4cc(NC(=O)C=C)c(N5CCOCC5)cc4OC)n3)cc2CN(C([2H])([2H])[2H])C([2H])([2H])[2H])c([2H])c1[2H] [Compound T-6, N-(5-((4-(4-((bis(methyl-d3)amino)methyl)-3-(phenyl-d5)-1H-pyrazol-1-yl)pyrimidin-2-yl)amino)-4-methoxy-2-morpholinophenyl)acrylamide] | – |

The next lines start with the molecule.

| Compound | IC50 [1] [nM] | IC50 [2] [nM] | IC50 (WT EGFR) [nM] | IC50 [3] [nM] | IC50 (EGFR [L858R/T790M]) [nM] | AUC(0-t) ([4]; IV 0.5 mg/kg single dose) [ng·h/mL] | Cmax ([4]; IV 0.5 mg/kg single dose) [ng/mL] | Tmax ([4]; IV 0.5 mg/kg single dose) [h] | half-life ([4]; IV 0.5 mg/kg single dose) [h] | AUC(0-inf) ([4]; IV 0.5 mg/kg single dose) [ng·h/mL] | clearance ([4]; IV 0.5 mg/kg single dose) [mL/min/kg] | MRT inf ([4]; IV 0.5 mg/kg single dose) [h] | Vd ([4]; IV 0.5 mg/kg single dose) [L/kg] | AUC(0-t) ([4]; PO 10 mg/kg single dose) [ng·h/mL] | Cmax ([4]; PO 10 mg/kg single dose) [ng/mL] | Tmax ([4]; PO 10 mg/kg single dose) [h] | half-life ([4]; PO 10 mg/kg single dose) [h] | AUC(0-inf) ([4]; PO 10 mg/kg single dose) [ng·h/mL] | MRT inf ([4]; PO 10 mg/kg single dose) [h] | bioavailability [4] [%] | further results |
| --- | --- | --- | --- | --- | --- | --- | --- | --- | --- | --- | --- | --- | --- | --- | --- | --- | --- | --- | --- | --- | --- |
| [2H]c1c(C([2H])([2H])N(C)C)c(-c2ccccc2)nn1-c1ccnc(Nc2cc(NC(=O)C=C)c(N3CCOCC3)cc2OC)n1 [Compound T-1, N-(5-((4-(4-((dimethylamino)methyl-d2)-3-phenyl-1H-pyrazol-1-yl-5-d)pyrimidin-2-yl)amino)-4-methoxy-2-morpholinophenyl)acrylamide] | 1.56 | 3.62 | < 2 | 200 to 450 | < 0.3 | – | – | – | – | – | – | – | – | – | – | – | – | – | – | – | – |
| [2H]c1c([2H])c([2H])c(-c2nn(-c3ccnc(Nc4cc(NC(=O)C=C)c(N5CCOCC5)cc4OC)n3)cc2CN(C)C)c([2H])c1[2H] [Compound T-2, N-(5-((4-(4-((dimethylamino)methyl)-3-(phenyl-d5)-1H-pyrazol-1-yl)pyrimidin-2-yl)amino)-4-methoxy-2-morpholinophenyl)acrylamide] | 1.98 | 3.57 | < 2 | 200 to 450 | < 0.3 | – | – | – | – | – | – | – | – | – | – | – | – | – | – | – | – |
| C=CC(=O)Nc1cc(Nc2nccc(-n3cc(CN(C)C)c(-c4ccccc4)n3)n2)c(OC)cc1N1CCOCC1 [Compound T-0, reference compound] | 4.2 | 4.7 | < 2 | 200 to 450 | < 0.3 | 477 | 323 | 0.08 | 3.78 | 498 | 17.5 | 2.95 | 5.73 | 1600 | 115 | 1.33 | 7.55 | 1800 | 9.19 | 16.7 | Cl—pred ([4]; PO 10 mg/kg single dose): 94.2 mL/min/kg; Vz—pred ([4]; PO 10 mg/kg single dose): 61.56 L/kg; inhibitory activity against EGFR mutant kinase (in words) (EGFR mutant kinase): significant inhibitory activity |
| [2H]C([2H])([2H])Oc1cc(N2CCOCC2)c(NC(=O)C=C)cc1Nc1nccc(-n2cc(CN(C)C)c(-c3ccccc3)n2)n1 [Compound T-3, N-(5-((4-(4-((dimethylamino)methyl)-3-phenyl-1H-pyrazol-1-yl)pyrimidin-2-yl)amino)-4-(methoxy-d3)-2-morpholinophenyl)acrylamide] | 2.27 | 4.53 | < 2 | 200 to 450 | < 0.3 | 436 | 299 | 0.08 | 3.56 | 456 | 18.5 | 3.34 | 5.71 | 1650 | 120 | 4 | 7.48 | 1920 | 8.67 | 18.9 | Cl—pred ([4]; PO 10 mg/kg single dose): 88 mL/min/kg; Vz—pred ([4]; PO 10 mg/kg single dose): 56.99 L/kg; Cmax, AUClast and oral availability (F %) compared with compound T-0 (in words) ([4]; orally): better metabolic parameters |
